Source: patent publication US20220331274A1, “METHODS OF TREATING CANCER” (Inspirna, Inc., priority 2019, published 2022)

What was measured:
cancer cells = experiment: cancer cell invasion in vitro; type: cell-based
[1] = target: human ether-n-go-go-related gene (hERG) channel (Homo sapiens, UniProt Q12809); experiment: in vitro hERG assay; type: cell-based
CYP2J2 = CYP2J2 (Homo sapiens, UniProt P51589); experiment: in vitro CYP metabolism; type: in vitro ADME
endothelial cells = experiment: endothelial recruitment in vitro; type: cell-based
2C9 = 2C9 (Homo sapiens, UniProt P11712); experiment: in vitro CYP450 inhibition; type: in vitro ADME
mouse melanoma = experiment: syngeneic mouse melanoma model; type: in vivo
tumor growth = tumor growth studies, minimum efficacious dose and exposure; type: in vivo
melanoma xenograft = melanoma xenograft study in non-obese diabetic-severe combined immunodeficiency mice; type: in vivo; conditions: 25 mg/kg
[2] = target: organic anion transporting polypeptide (OATP) 1B1 (Homo sapiens, UniProt Q9Y6L6); experiment: uptake transporter inhibition in vitro; type: in vitro ADME; conditions: read-out: IC50 OATP1B1
[3] = pre-clinical toxicity studies; type: in vivo
[4] = oral PK study in Cynomolgus monkeys; type: in vivo; conditions: cynomolgus monkey, plasma
TNBC metastasis = experiment: mouse model of TNBC metastasis; conditions: in vivo
[5] = neurobehavioral functional observation battery (FOB) and respiratory evaluations in rats; type: in vivo
BCRP = BCRP (Homo sapiens, UniProt Q9UNQ0); experiment: efflux transporter inhibition in vitro; type: in vitro ADME; conditions: read-out: inhibition of BCRP transport
OAT3 = OAT3 (Homo sapiens, UniProt Q8TCC7); experiment: transporter inhibition in vitro; type: in vitro ADME
Xenograft A549 = experiment: Example 2: Xenograft A549 mice, tumor volume; type: in vivo
Protocol: Protocol: Five groups of Xenograft A549 mice were treated and tumor volume tracked for twenty-two days. Group 01 was administered 0.9% Saline, 0 mg/kg cisplatin, Corn Oil, and 0 mg/kg 2-[3-[(3R)-3-[[2-chloro-3-(trifluoromethyl)phenyl]methyl-(2,2-diphenylethyl)amino]butoxy]phenyl]acetic acid; Group 02 was administered 2 mg/kg Cisplatin, Corn Oil, and 0 mg/kg 2-[3-[(3R)-3-[[2-chloro-3-(trifluoromethyl)phenyl]methyl-(2,2-diphenylethyl)amino]butoxy]phenyl]acetic acid; Group 03 was administered 0.9% Saline, 0 mg/kg cisplatin, and 50 mg/kg 2-[3-[(3R)-3-[[2-chloro-3-(trifluoromethyl)phenyl]methyl-(2,2-diphenylethyl)amino]butoxy]phenyl]acetic acid; Group 04 was administered 2 mg/kg cisplatin and 50 mg/kg 2-[3-[(3R)-3-[[2-chloro-3-(trifluoromethyl)phenyl]methyl-(2,2-diphenylethyl)amino]butoxy]phenyl]acetic acid twice per day daily for the entire treatment period; and Group 05 was administered 2 mg/kg cisplatin and 50 mg/kg 2-[3-[(3R)-3-[[2-chloro-3-(trifluoromethyl)phenyl]methyl-(2,2-diphenylethyl)amino]butoxy]phenyl]acetic acid twice per day for five continuous days followed by two days without for the entire treatment period.

P-glucoprotein (P-gp) = P-glucoprotein (P-gp) (Homo sapiens, UniProt P08183); experiment: efflux transporter inhibition in vitro; type: in vitro ADME
[6] = oral PK study in male Beagle dogs; type: in vivo; conditions: dog, plasma
[7] = po, depending on dose and formulation, read-out: mean % F

BCRP, sequence (Q9UNQ0 whole entry, species assumed): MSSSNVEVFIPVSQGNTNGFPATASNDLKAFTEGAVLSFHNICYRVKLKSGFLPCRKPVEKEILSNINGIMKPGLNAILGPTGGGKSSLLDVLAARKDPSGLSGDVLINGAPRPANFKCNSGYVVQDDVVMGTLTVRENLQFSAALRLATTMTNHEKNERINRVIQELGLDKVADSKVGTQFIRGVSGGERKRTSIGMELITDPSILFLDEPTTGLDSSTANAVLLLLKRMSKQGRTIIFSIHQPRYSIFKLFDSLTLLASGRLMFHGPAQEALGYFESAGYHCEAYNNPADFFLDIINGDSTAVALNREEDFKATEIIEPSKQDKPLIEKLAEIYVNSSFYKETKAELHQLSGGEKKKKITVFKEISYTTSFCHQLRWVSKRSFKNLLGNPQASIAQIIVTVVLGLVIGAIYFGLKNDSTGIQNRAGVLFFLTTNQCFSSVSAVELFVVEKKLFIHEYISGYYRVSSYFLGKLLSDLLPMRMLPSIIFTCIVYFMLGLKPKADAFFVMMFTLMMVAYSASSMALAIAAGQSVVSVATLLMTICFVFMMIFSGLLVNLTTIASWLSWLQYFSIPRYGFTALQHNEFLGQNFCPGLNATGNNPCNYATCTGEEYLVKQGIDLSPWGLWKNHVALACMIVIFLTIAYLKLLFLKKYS
2C9, sequence (P11712 whole entry): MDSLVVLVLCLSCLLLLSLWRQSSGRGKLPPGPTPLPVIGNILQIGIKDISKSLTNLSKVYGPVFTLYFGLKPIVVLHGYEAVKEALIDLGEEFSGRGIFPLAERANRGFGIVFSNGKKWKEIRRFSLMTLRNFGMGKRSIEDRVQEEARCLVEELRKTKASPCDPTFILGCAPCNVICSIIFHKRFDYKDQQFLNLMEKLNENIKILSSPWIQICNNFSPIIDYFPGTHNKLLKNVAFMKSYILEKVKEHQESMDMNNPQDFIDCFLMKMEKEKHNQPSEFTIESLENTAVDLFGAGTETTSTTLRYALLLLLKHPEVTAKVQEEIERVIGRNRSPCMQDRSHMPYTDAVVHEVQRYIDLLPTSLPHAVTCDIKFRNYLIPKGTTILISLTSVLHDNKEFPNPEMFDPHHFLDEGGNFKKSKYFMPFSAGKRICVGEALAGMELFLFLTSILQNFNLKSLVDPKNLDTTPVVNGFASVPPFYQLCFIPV
P-glucoprotein (P-gp), sequence (P08183 whole entry): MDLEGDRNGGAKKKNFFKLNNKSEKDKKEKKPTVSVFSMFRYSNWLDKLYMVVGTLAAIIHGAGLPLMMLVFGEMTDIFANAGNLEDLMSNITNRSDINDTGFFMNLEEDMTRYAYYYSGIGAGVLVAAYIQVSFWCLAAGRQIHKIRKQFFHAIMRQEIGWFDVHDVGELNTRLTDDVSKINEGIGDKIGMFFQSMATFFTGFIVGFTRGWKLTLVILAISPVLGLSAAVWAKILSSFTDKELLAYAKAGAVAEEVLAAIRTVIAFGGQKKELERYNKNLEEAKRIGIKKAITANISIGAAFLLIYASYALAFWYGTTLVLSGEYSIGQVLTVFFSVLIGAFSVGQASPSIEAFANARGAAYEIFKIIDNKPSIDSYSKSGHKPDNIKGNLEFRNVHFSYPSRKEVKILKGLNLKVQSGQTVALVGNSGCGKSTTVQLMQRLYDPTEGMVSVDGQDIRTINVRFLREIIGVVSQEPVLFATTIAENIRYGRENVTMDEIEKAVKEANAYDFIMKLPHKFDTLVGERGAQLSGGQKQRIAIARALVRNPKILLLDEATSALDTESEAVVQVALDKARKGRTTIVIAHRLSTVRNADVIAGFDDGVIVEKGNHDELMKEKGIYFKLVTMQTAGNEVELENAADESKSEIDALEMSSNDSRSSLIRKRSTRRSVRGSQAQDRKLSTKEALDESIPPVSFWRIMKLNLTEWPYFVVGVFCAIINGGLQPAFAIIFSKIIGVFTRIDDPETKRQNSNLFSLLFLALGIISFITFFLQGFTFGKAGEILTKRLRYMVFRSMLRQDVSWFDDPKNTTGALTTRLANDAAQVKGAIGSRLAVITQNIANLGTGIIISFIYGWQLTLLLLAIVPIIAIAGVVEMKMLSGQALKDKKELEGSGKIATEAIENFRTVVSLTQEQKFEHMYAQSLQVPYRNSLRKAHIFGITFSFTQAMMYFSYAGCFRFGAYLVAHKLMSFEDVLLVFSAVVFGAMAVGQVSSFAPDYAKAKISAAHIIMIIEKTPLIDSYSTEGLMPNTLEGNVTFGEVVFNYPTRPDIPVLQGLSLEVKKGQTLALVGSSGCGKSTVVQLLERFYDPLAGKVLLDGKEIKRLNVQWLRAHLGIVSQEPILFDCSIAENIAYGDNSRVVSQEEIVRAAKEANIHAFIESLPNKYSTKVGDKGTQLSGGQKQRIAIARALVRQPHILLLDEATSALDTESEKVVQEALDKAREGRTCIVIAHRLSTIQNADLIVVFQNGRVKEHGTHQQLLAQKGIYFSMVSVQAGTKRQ
OAT3, sequence (Q8TCC7 whole entry): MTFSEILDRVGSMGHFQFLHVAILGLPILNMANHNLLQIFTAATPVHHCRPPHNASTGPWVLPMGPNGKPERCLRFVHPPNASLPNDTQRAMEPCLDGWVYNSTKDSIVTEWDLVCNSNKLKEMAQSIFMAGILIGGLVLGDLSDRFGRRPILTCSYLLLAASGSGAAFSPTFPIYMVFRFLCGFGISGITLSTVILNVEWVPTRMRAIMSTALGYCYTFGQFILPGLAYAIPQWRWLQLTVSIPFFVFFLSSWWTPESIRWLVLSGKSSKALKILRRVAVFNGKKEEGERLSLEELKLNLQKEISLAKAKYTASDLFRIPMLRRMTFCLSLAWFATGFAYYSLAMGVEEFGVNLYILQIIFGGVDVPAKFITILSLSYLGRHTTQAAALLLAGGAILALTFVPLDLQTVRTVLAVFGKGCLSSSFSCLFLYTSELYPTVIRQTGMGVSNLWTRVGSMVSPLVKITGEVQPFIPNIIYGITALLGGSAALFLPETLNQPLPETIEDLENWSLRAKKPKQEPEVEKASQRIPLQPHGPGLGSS
organic anion transporting polypeptide (OATP) 1B1, sequence (Q9Y6L6 whole entry): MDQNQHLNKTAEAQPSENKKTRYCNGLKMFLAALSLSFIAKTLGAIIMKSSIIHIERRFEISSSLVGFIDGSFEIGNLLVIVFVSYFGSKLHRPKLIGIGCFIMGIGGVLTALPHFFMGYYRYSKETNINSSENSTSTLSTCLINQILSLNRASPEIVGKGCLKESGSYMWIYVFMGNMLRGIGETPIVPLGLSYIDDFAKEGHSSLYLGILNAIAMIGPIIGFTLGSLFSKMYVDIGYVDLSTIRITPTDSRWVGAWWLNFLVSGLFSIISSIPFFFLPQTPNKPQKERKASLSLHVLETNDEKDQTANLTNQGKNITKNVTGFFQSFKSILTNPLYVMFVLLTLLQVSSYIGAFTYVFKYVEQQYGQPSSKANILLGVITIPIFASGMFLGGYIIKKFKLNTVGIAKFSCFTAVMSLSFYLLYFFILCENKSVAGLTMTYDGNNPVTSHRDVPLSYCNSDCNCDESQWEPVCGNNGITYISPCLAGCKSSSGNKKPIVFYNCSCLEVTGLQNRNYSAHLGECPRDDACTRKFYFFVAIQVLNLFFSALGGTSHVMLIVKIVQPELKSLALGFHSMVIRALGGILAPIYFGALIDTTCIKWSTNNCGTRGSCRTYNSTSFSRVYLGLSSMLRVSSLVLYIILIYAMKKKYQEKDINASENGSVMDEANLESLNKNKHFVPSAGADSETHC
human ether-n-go-go-related gene (hERG) channel, sequence (Q12809 whole entry): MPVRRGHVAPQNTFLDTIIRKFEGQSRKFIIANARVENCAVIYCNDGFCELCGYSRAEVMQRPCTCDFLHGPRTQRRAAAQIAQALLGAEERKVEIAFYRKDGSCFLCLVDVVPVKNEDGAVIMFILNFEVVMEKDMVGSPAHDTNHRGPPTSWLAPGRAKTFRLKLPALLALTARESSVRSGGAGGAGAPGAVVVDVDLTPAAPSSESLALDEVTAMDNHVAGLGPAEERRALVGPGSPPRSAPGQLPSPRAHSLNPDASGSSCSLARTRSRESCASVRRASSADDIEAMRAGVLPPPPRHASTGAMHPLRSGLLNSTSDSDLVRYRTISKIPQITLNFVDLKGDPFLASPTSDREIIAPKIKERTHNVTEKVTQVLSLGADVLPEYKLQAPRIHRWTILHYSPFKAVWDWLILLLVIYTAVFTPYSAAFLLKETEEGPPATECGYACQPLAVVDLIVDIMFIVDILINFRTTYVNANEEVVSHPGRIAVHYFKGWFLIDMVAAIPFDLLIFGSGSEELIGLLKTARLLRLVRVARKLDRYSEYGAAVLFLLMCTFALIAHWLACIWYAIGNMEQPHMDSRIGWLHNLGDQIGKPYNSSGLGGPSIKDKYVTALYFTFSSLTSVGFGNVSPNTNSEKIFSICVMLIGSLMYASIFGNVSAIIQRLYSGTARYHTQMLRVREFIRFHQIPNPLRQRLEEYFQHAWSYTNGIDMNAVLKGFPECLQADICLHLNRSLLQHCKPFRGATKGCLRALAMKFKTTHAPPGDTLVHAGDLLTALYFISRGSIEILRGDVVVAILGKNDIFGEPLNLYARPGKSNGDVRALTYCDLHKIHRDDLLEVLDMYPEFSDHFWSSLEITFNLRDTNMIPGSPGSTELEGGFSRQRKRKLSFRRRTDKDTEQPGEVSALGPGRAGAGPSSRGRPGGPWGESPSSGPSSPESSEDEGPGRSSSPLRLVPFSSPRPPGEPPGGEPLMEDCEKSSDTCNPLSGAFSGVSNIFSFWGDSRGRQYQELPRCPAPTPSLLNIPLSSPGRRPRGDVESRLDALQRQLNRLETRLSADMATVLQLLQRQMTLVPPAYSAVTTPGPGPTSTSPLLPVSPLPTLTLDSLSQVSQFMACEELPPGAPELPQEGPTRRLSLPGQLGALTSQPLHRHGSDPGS

With C[C@H](CCOc1cccc(CC(=O)O)c1)N(Cc1cccc(C(F)(F)F)c1Cl)CC(c1ccccc1)c1ccccc1 [2-[3-[(3R)-3-[[2-chloro-3-(trifluoromethyl)phenyl]methyl-(2,2-diphenylethyl)amino]butoxy]phenyl]acetic acid] the “suppression of cancer cell invasion” value (cancer cells) was roughly 45%, the hERG channel conductance [1] was “significant increase, but not inhibition” and the “substrate for CYP2J2” value (CYP2J2) was “possibly”. For the same molecule, the “inhibition of endothelial recruitment” value (endothelial cells) was roughly 50%, the “inhibition of 2C9” value (2C9) was “very weakly inhibited” and the tumor growth (mouse melanoma; 50 mg/kg in combination with anti-PD1 therapy, tumors otherwise resistant to PD-1 inhibition) was “significant suppression of tumor growth”. For the same molecule, the “inhibition of tumor growth” value (mouse melanoma; combination with anti-CTLA-4 antibody relative to either therapy alone) was “superior”, the tumor growth inhibition (mouse melanoma; in combination with an anti-PD-1 antibody, model otherwise not responsive to anti-PD-1 antibody) was greater than 80% and the anti-tumor efficacy (mouse melanoma; in combination with dacarbazine, compared to either treatment alone) was greater than 80%. The “exposures at minimum efficacious doses” value (tumor growth; 25-40 mg/kg/day PO) was 10,000-50,000 ng-h/mL, the minimum efficacious doses (tumor growth; administered orally (PO)) was 25 to 40 mg/kg/day and the “growth of the xenograft” value (melanoma xenograft) was “significantly inhibited growth of the xenograft”. The IC50 [2] was 99 nM, the liver function [3] was “Liver function abnormalities have been observed” and the Tmax ([4]; oral dose) was 4 h. For the same molecule, the bioavailability [4, 7] was 6 to 19%, the half-life ([4]; po, read-out: mean oral t½) was 5.5 to 8 h and the “inhibition of metastatic spread of cancer cells” value (TNBC metastasis) was roughly 9 fold. The “neurobehavioral FOB or respiratory evaluations” value [5] was “no adverse effects were noted”, the inhibition at 5 µM (BCRP) was 55% and the inhibition at 50 µM (OAT3) was less than 50%. The mean tumor volume (Xenograft A549; Group 03: 50 mg/kg, 0.9% saline, 0 mg/kg cisplatin, day 0) was 86.36, the mean tumor volume (Xenograft A549; Group 03: 50 mg/kg, 0.9% saline, 0 mg/kg cisplatin, day 3) was 98.82 and the mean tumor volume (Xenograft A549; Group 03: 50 mg/kg, 0.9% saline, 0 mg/kg cisplatin, day 6) was 125.97. The mean tumor volume (Xenograft A549; Group 03: 50 mg/kg, 0.9% saline, 0 mg/kg cisplatin, day 9) was 232.26, the mean tumor volume (Xenograft A549; Group 03: 50 mg/kg, 0.9% saline, 0 mg/kg cisplatin, day 12) was 354.70 and the mean tumor volume (Xenograft A549; Group 03: 50 mg/kg, 0.9% saline, 0 mg/kg cisplatin, day 15) was 507.62. For the same molecule, the mean tumor volume (Xenograft A549; Group 03: 50 mg/kg, 0.9% saline, 0 mg/kg cisplatin, day 19) was 1053.57, the mean tumor volume (Xenograft A549; Group 03: 50 mg/kg, 0.9% saline, 0 mg/kg cisplatin, day 22) was 1151.02 and the mean tumor volume (Xenograft A549; Group 04: 50 mg/kg twice per day daily + 2 mg/kg cisplatin, day 0, in mm³ (unit assumed)) was 86.71. It also gave a mean tumor volume (Xenograft A549; Group 04: 50 mg/kg twice per day daily + 2 mg/kg cisplatin, day 3) of 94.50, a mean tumor volume (Xenograft A549; Group 04: 50 mg/kg twice per day daily + 2 mg/kg cisplatin, day 6) of 111.80 and a mean tumor volume (Xenograft A549; Group 04: 50 mg/kg twice per day daily + 2 mg/kg cisplatin, day 9, in mm³ (unit assumed)) of 214.76. It also gave a mean tumor volume (Xenograft A549; Group 04: 50 mg/kg twice per day daily + 2 mg/kg cisplatin, day 12, in mm³ (unit assumed)) of 315.64, a mean tumor volume (Xenograft A549; Group 04: 50 mg/kg twice per day daily + 2 mg/kg cisplatin, day 15, in mm³ (unit assumed)) of 315.55 and a mean tumor volume (Xenograft A549; Group 04: 50 mg/kg twice per day daily + 2 mg/kg cisplatin, day 19) of 748.19. The mean tumor volume (Xenograft A549; Group 04: 50 mg/kg twice per day daily + 2 mg/kg cisplatin, day 22) was 875.67, the mean tumor volume (Xenograft A549; Group 05: 50 mg/kg twice per day five days then two days without + 2 mg/kg cisplatin, day 0, in mm³ (unit assumed)) was 86.32 and the mean tumor volume (Xenograft A549; Group 05: 50 mg/kg twice per day five days then two days without + 2 mg/kg cisplatin, day 3) was 97.27. It also gave a mean tumor volume (Xenograft A549; Group 05: 50 mg/kg twice per day five days then two days without + 2 mg/kg cisplatin, day 6) of 129.15, a mean tumor volume (Xenograft A549; Group 05: 50 mg/kg twice per day five days then two days without + 2 mg/kg cisplatin, day 9, in mm³ (unit assumed)) of 212.99 and a mean tumor volume (Xenograft A549; Group 05: 50 mg/kg twice per day five days then two days without + 2 mg/kg cisplatin, day 12, in mm³ (unit assumed)) of 334.58. For the same molecule, the mean tumor volume (Xenograft A549; Group 05: 50 mg/kg twice per day five days then two days without + 2 mg/kg cisplatin, day 15, in mm³ (unit assumed)) was 345.20, the mean tumor volume (Xenograft A549; Group 05: 50 mg/kg twice per day five days then two days without + 2 mg/kg cisplatin, day 19) was 680.16 and the mean tumor volume (Xenograft A549; Group 05: 50 mg/kg twice per day five days then two days without + 2 mg/kg cisplatin, day 22) was 830.27. For the same molecule, the “inhibition of P-gp” value (P-glucoprotein (P-gp)) was “does not inhibit”, the Tmax ([6]; oral dose) was 4 to 8 h and the bioavailability [6, 7] was 18 to 30%. It also gave a half-life ([6]; po, read-out: mean apparent oral t½) of 5 to 6.7 h.
